# Measurements published in patent US10342804B2, “Steroid compound for use in the treatment of hepatic encephalopathy” (Umecrine Cognition AB, priority 2014, dated 2019).
# Where two headings read alike, the source gives them in different places.
# How the values were obtained:
# [1] = system: hyperammonemic rats; experiment: Spatial memory in the Morris water maze, chronic hyperammonemia model (Example 3); assay type: in vivo, rat; conditions: 20 mg/kg s.c. once daily, 4th-5th week of treatment
# Excerpt: In this study an animal model of chronic hyperammonemia was used that reproduces many of the cognitive and motor alterations present in hepatic encephalopathy. Rats were fed with ammonia in their food and after two weeks with ammonia enriched food they developed symptoms of hepatic encephalopathy. The beam walking test was made during the 3rd and 4th week of 3α-ethynyl-3β-hydroxyandrostan-17-one oxime treatment while the Morris Water maze test was made during 4th-5th week of 3α-ethynyl-3β-hydroxyandrostan-17-one oxime treatment and the Radial maze test was made during 6th-7th week of 3α-ethynyl-3β-hydroxyandrostan-17-one oxime treatment. […]
# The test was carried out as follows; the first day was the pre-training day, rats were put in the water two times for 30 s only to adapt to water. […] The time, speed and path needed to find the hidden platform was recorded by a video tracking system provided by Viewpoint Company (Viewpoint 2.5, Champagne au Mont D′ Or, France) and used as a measure of learning of the task. After 15 training trial, the platform was removed from the pool, the rats were allowed to swim for 90 s in the pool and the time spent in the quadrant where the platform was positioned during training was recorded.
# [2] = system: PCS rats; experiment: Circadian rhythms of spontaneous locomotor activity (actimeter), PCS rats (Example 11); assay type: in vivo, rat
# Method: (§1) Male Wistar rats (220-240 g) were anesthetized with isoflurane, and an end-to side porta-caval anastomosis was performed as described by Lee and Fisher (Surgery, 1961, 50, 668-672).
# (§2) Rats that were subjected to the porta-caval anastomosis procedure are herein referred to as “PCS rats”.
# (§3) 3α-ethynyl-3β-hydroxyandrostan-17-one oxime in sesame oil was administered by subcutaneous injections in the back of the rats, once daily. Two different sets of experiments were performed in hyperammonemic rats. In the first set four groups of rats were used: 1) control rats injected with vehicle; 2) hyperammonemic rats injected with vehicle; 3) control rats injected with 20 mg/Kg of 3α-ethynyl-3β-hydroxyandrostan-17-one oxime and 4) hyperammonemic rats injected with 20 mg/Kg of 3α-ethynyl-3β-hydroxyandrostan-17-one oxime.
# (§4) For the experiments using PCS rats, the following groups of rats were used: 1) Sham rats injected with vehicle; 2) PCS rats injected with vehicle; 3-4) PCS rats injected with 0.7 or 2.5 mg/Kg of 3α-ethynyl-3β-hydroxyandrostan-17-one oxime. The number of rats used in each experiment is either shown in the corresponding Figure or given in the description of the corresponding Figure.
# Motor activity was measured using an actimeter (Med Associates, S t. Albans, Vt.). Rats were placed individually in an open-field activity chamber (43×43×31 cm), and motor activity was recorded continuously for 14 days in conditions of light-dark (L:D), 12 h:12 h. Data were recorded at intervals of 5 minutes. Motor activity was detected by arrays of infrared motion detectors, placed in three directions, x, y and z. One ambulatory count is recorded by the apparatus when the rat interrupts three consecutive infrared detectors, in x or y position. A vertical count is recorded when rat interrupts infrared detectors in z position. The software allows measuring different parameter of motor activity, such as ambulatory counts or vertical counts (Ahabrach et al. Journal of Neuroscience Research, 2010, 88, 1605-14).
# [3] = system: blood ammonia; experiment: Blood ammonia, PCS rats (Example 12); assay type: in vivo, rat
# Method: as §1, §2, §3, §4
# Blood ammonia was measured using the kit II Ammonia Arkray test (PocketChem BA, Arkray) using 20 μL of fresh blood following manufacturer's specifications.
# [4] = Fraction unbound in brain homogenates by dialysis; assay type: in vitro ADME; conditions: rat, brain homogenate, read-out: Fraction unbound (Fub) in brain homogenates
# Method: At the end of the treatment period plasma was collected from the tail vein, and after sacrifice by decapitation brains were collected and immediately frozen on dry ice. For analysis of 3α-ethynyl-3β-hydroxyandrostan-17-one oxime exposure, brain tissue was homogenized with a 1:4 ratio of tissue: PBS (pH 7.4) and then extracted with a 2-fold volume of methanol:acetonitrile (1:1), while plasma was protein-precipitated with a 3-fold volume with acetonitrile. Analyses were performed by Waters ACQUITY UPLC+Waters XEVO-TQS triple quadrupole mass spectrometer (Admescope Oy, Oulu, Finland). For calculations of the amount of free 3α-ethynyl-3β-hydroxyandrostan-17-one oxime exposure in the brain the fraction unbound (Fb) in brain homogenates were determined by dialysis, Fub in HA=[…] and Fub in PCS=1.43% (Admescope Oy, Oulu, Finland).
smiles,measurement,setting,value
C#C[C@]1(O)CC[C@@]2(C)C(CC[C@@H]3[C@@H]2CC[C@]2(C)/C(=N\O)CC[C@@H]32)C1 (stereo partly drawn) [3α-ethynyl-3β-hydroxyandrostan-17-one oxime],Spatial memory in the Morris water maze (time to find the platform),[1],completely restored spatial memory
same,Motor activity (ambulatory counts) during the night,[2]; 0.7 mg/kg,2652±275 counts
same,Night/day ratio of ambulatory activity,[2]; 0.7 mg/kg,1.7±0.2
same,Night/day ratio of vertical activity,[2]; 0.7 mg/kg,2.1±0.4
same,Vertical activity during the day,[2]; 0.7 mg/kg,339±47 counts
same,Vertical activity during the night,[2]; 0.7 mg/kg,664±121 counts
same,Motor activity (ambulatory counts) during the night,[2]; 2.5 mg/kg,2235±170 counts
same,Night/day ratio of ambulatory activity,[2]; 2.5 mg/kg,1.6±0.3
same,Night/day ratio of vertical activity,[2]; 2.5 mg/kg,1.9±0.6
same,Vertical activity during the day,[2]; 2.5 mg/kg,424±44 counts
same,Vertical activity during the night,[2]; 2.5 mg/kg,695±185 counts
same,Blood ammonia,[3]; 0.7 mg/Kg,302 ± 30 µM
same,Blood ammonia,[3]; 2.5 mg/Kg,294 ± 37 µM
same,fraction unbound,"[4]; pH 7.4, HA rats",0.007
same,fraction unbound,"[4]; pH 7.4, PCS rats",0.0143
